Experimental data reported in paper PMC10052977, “α,ω-Diacyl-Substituted Analogues of Natural and Unnatural Polyamines: Identification of Potent Bactericides That Selectively Target Bacterial Membranes” (International Journal of Molecular Sciences, 2023).
Like-named read-outs stand apart in the source and are kept apart here.

How the values were obtained:
[1] = system: Escherichia coli ATCC 25922; assay: MIC, CO-ADD broth microdilution; type: cell-based; conditions: ATCC25922, mean (n = 2)
MRSA (CF-Marseille) [2] = assay: MIC, classical microdilution; type: cell-based; conditions: Staphylococcus aureus, 4.4 μM = 4 μg/mL
[3] = system: Bacillus cereus ATCC 11778; assay: Real-time growth curves; type: cell-based; conditions: B. cereus ATCC 11778
Procedure: (§1) Solutions of compound 15d at concentrations of 2, 4 and 16 µg/mL were tested, each in triplicate, against S. aureus ATCC 25923, MRSA (CF-Marseille) and Bacillus cereus ATCC 11778. Typically, in a 96-well plate, 10 µL of 40, 80 and 320 µg/mL stock solutions of compound 15d were placed, as well as 190 µL of a 5 × 10^5 CFU/mL of the selected bacterial suspension in brain heart infusion (BHI) broth. Positive controls containing only 200 µL of a 5 × 10^5 CFU/mL of bacterial suspension in BHI and negative controls containing only 200 µL of BHI broth were added. The plate was incubated at 37 °C in a TECAN Spark Reader (Roche Diagnostic), and real-time bacterial growth was followed by OD590 nm measurement every 10 min during 19 h.

MRSA (CF-Marseille) [4] = assay: Real-time growth curves; type: cell-based, Staphylococcus aureus
Procedure: as §1

S. aureus ATCC 25923 [5] = assay: Real-time growth curves; type: cell-based, Staphylococcus aureus
Procedure: as §1

MRSA ATCC 43300 = assay: MIC, CO-ADD broth microdilution; type: cell-based, Staphylococcus aureus; conditions: Staphylococcus aureus; MRSA ATCC 43300; mean (n = 2); read-out: MIC MRSA
[6] = system: Staphylococcus aureus ATCC 25923 or ATCC 29213; assay: MIC, broth dilution (CA-SFM); type: cell-based
human red blood cells = assay: Hemolytic assay; type: cell-based
In short: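 Washed human erythrocytes at 0.5 × 10^8 cells/mL in 0.9% NaCl, shaken 10 min with compound, then held 1 h at 37 °C. Released hemoglobin in supernatant after centrifugation read at OD405; HC10 and HC50 from variable-slope sigmoidal fit against log concentration.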

[7] = system: Klebsiella pneumoniae ATCC700603; assay: MIC, CO-ADD broth microdilution; type: cell-based; conditions: mean (n = 2)
[8] = system: Bacillus cereus ATCC 11778; assay: MIC, classical microdilution; type: cell-based; conditions: ATCC11778, 4.4 μM = 4 μg/mL
[9] = system: Acinetobacter baumannii ATCC19606; assay: MIC, CO-ADD broth microdilution; type: cell-based; conditions: mean (n = 2)
S. aureus ATCC 25923 [10] = assay: ATP release assay (bioluminescence); type: cell-based, Staphylococcus aureus; conditions: brief exposure
Procedure: The mechanism of action of antibacterial activity observed for 15d was attributed to the ability to disrupt the bacterial cell membrane.
Solutions of test compound 15d were prepared in DMSO at various concentrations. A suspension of growing S. aureus to be studied in Muller–Hinton II broth was prepared and incubated at 37 °C. An aliquot (90 µL) of this suspension was added to 10 µL of test compound solution and vortexed for 10 s. Luciferin–luciferase reagent (Yelen, France; 50 µL) was immediately added to this mixture and luminescent signal quantified with an Infinite M200 microplate reader (Tecan) over a 30 min period. ATP concentration was quantified by internal sample addition. A similar procedure was used for the CTAB positive control.

[11] = Cytotoxicity assay (resazurin); type: cell-based, human; conditions: human; HEK293 cells; mean (n = 2); highest dose tested 32 μg/mL; read-out: Cytotoxicity (concentration of compound at 50% cytotoxicity, IC50)
[12] = system: HEK293 human embryonic kidney cells; assay: Cytotoxicity assay (resazurin); type: cell-based; conditions: HEK293
[13] = system: Pseudomonas aeruginosa PAO1 or ATCC 27853; assay: MIC, broth dilution (CA-SFM); type: cell-based; conditions: mean (n = 3)
MRSA (CF-Marseille) [14] = assay: Minimum bactericidal concentration test; type: cell-based; conditions: Staphylococcus aureus, same value as MIC
Procedure: (§2) A pure culture of a specified microorganism was grown overnight, then diluted in growth-supporting broth (typically Mueller–Hinton II broth) to a concentration between 1 × 10^5 and 1 × 10^6 CFU/mL. A stock dilution of the antimicrobial test compound was created at approximately 100 times the expected previously determined MIC. Further 1:1 dilution was made in 96-well microtiter plates. All dilutions of the test compound were inoculated with equal volumes of the specified microorganism (typically 100 µL). […] An aliquot of the positive control is plated and used to establish a baseline concentration of the microorganism used. The microtiter plates were then incubated at 37 °C for 24 h. Turbidity indicates growth of the microorganism, and the MIC is the lowest concentration where no growth is visually observed. To determine the minimum bactericidal concentration (MBC), the dilution representing the MIC and at least two of the more concentrated test product dilutions are plated on a solidified agar plate to determine the bacterial viability. The MBC is the lowest concentration where no growth is encountered when compared to the MIC dilution.

[15] = system: Bacillus cereus ATCC 11778; assay: Minimum bactericidal concentration test; type: cell-based; conditions: ATCC11778, same value as MIC
Procedure: as §2

S. aureus ATCC 25923 [16] = assay: Minimum bactericidal concentration test; type: cell-based; conditions: Staphylococcus aureus, ATCC25923, same value as MIC
Procedure: as §2

[17] = system: Cryptococcus neoformans ATCC208821; assay: Antifungal MIC, CO-ADD; type: cell-based; conditions: ATCC208821, Cryptococcus neoformans ATCC208821, mean (n = 2)
In short: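 Fungal strains were grown on YPD agar at 30 °C for 3 days. Five colonies were used to make a yeast suspension of 1 × 10^6 to 5 × 10^6 CFU/mL, which was diluted in yeast nitrogen base (YNB) broth to 2.5 × 10^3 CFU/mL. Covered plates were incubated without shaking at 35 °C for 36 h. Fluconazole was the positive control, and quality was judged from antimicrobial controls and the Z'-factor.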

[18] = system: Candida albicans ATCC90028; assay: Antifungal MIC, CO-ADD; type: cell-based; conditions: mean (n = 2)
In short: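 Yeast from 3-day YPD cultures was diluted in YNB broth to a final 2.5 × 10^3 CFU/mL and incubated at 35 °C for 36 h without shaking. C. albicans MICs were read by OD530 absorbance. QC used fluconazole and Z'-factor controls.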

[19] = at 4.4 μM (4 µg/mL) and 17 μM (16 µg/mL)
[20] = lowest tested concentration 2.2 μM (2 µg/mL)

In the case of O=C(CC(c1ccccc1)c1ccccc1)NCCCNCCCCCCCCNCCCNC(=O)CC(c1ccccc1)c1ccccc1.O=C(O)C(F)(F)F.O=C(O)C(F)(F)F [Compound 15d, N^1,N^8-Bis(3-(3,3-diphenylpropanamido)propyl)octane-1,8-diaminium 2,2,2-trifluoroacetate], the MIC [1] is reported as 2.2 µM, the MIC (MRSA (CF-Marseille) [2]) is reported as 4.4 µM and the “real-time growth inhibition” value [3, 19] is reported as “completely inhibited”. The “time after which bacterial growth was detected” value [3, 20] was 12 h, the “real-time growth inhibition” value (MRSA (CF-Marseille) [4]; [19]) was “completely inhibited” and the “time after which bacterial growth was detected” value (MRSA (CF-Marseille) [4]; [20]) was 4 h. For the same compound, the “real-time growth inhibition” value (S. aureus ATCC 25923 [5]; [19]) was “completely inhibited”, the “time after which bacterial growth was detected” value (S. aureus ATCC 25923 [5]; [20]) was 6 h and the MIC (MRSA ATCC 43300) was at most 0.28 µM. The MIC ([6]; Staphylococcus aureus ATCC 25923 or ATCC 29213, mean (n = 3), read-out: MIC S. a) was 3.13 µM, the MIC ([6]; Staphylococcus aureus, S. aureus ATCC 25923, classical microdilution, 4.4 μM = 4 μg/mL, read-out: MIC) was 4.4 µM and the “hemolytic properties” value (human red blood cells) was “no detectable”. The “Hemolysis (HC10, concentration at 10% hemolytic activity)” value (human red blood cells; mean (n = 2)) was over 35.4 µM, the MIC [7] was over 35.4 µM and the MIC [8] was 4.4 µM. The MIC [9] was over 35.4 µM, the “leakage of intracellular ATP” value (S. aureus ATCC 25923 [10]) was “rapid dose-dependent leakage of intracellular ATP” and the IC50 at 20 h [11] was over 35.4 µM. The “cytotoxicity” value [12] was “no detectable”, the MIC [13] was 100 µM and the MBC (MRSA (CF-Marseille) [14]) was 4.4 µM. It also gave an MBC [15] of 4.4 µM, an MBC (S. aureus ATCC 25923 [16]) of 4.4 µM and an MIC [17] of over 35.4 µM. The MIC [18] was over 35.4 µM.
